Test results as given in patent US8834843B2, “Imaging method” (GE Healthcare Limited, priority 2007, dated 2014).
Numbered stars: 1 amine (or outer) side, 2 acyl side, 3 side chain; on linkers, the order of the positions; unused ones are H or OH. Bridge positions count the residues as written; N and C are the ends. Side chains are listed from the residue outwards. Peptide text beside a SMILES is read from it. * marks the point of attachment. X1 = C/C(=N\O)C(C)(C)NCCC(CCNC(C)(C)/C(C)=N/O)CCN*; Glutaryl = O=C(CCCC(=O)[*:2])[*:1]; X2 = NC(=O)COCC(=O)NCCOCCOCCOCCN*

System: αv integrin
Experiment: Liver uptake vs alpha-v integrin expression (ELISA) in BDL rat liver
Format: in vivo
Conditions: BDL animals
Description: The BDL and sham animal models were set up as described in Example 3. At each of 2, 15 and 28 days post-operatively, ˜3 MBq Compound 8 was administered to animals and the liver uptake assessed as described in Example 3.
The expression of αv integrin in the animals' livers was measured in homogenised livers of BDL- and sham-operated animals. At each of 2, 15 and 28 days post-operatively, animals were sacrificed and their livers removed and stored at −70° C.
Pre-weighed livers were removed from −70° C. freezer and placed into pre-cooled mortar and pestle in the presence of low amount of liquid nitrogen. Liver was crushed to almost a homogenous powder (during the crushing of the liver a small amount of liquid nitrogen was added to keep the tissue frozen at all times). […]
The homogenate was transferred into a pre-chilled glass tissue Dounce and three up and down strokes of the pestle were applied at 4° C. […] Relative protein concentration was determined in each sample using a commercial protein assay kit with BSA standards according to the manufacturer's instruction (Pierce, USA) (BSA aliquots should be made in modified RIPA buffer that was used for the homogenisation). Supernatant from each sample was further diluted between 1:50 and 1:200 in H2O and protein concentration was determined using a […] multi-well Plate reader (iEMS). […]

Structure (SMILES): C/C(=N\O)C(C)(C)NCCC(CCNC(=O)CCCC(=O)NCCCC[C@@H]1NC(=O)CSC[C@@H](C(=O)NCCOCCOCCOCCNC(=O)COCC(N)=O)NC(=O)[C@H](Cc2ccccc2)NC(=O)[C@@H]2CSSC[C@H](NC1=O)C(=O)N[C@@H](CCCNC(=N)N)C(=O)NCC(=O)N[C@@H](CC(=O)O)C(=O)N2)CCNC(C)(C)/C(C)=N/O (stereo partly shown) [Compound 8] ({CH2CO}-K([Glutaryl-X1])CRGDCFC-X2; disulfide 2-6; thioether N-8)
- Correlation of αv integrin expression with liver uptake (in words): correlation
